Reference: the NIST ThermoML archive (doi:10.1016/j.jct.2016.04.014)

Conditions: Liquid, Vibrating tube method

CCCCCCCC [octane]
Conditions | mass density [kg/m3]
288.15 K, 100 kPa | 706.5
288.15 K, 1000 kPa | 707.2
288.15 K, 5000 kPa | 710.3
288.15 K, 10000 kPa | 714.1
288.15 K, 15000 kPa | 717.7
288.15 K, 20000 kPa | 721.2
288.15 K, 25000 kPa | 724.5
288.15 K, 30000 kPa | 727.7
288.15 K, 35000 kPa | 730.8
288.15 K, 40000 kPa | 733.7
288.15 K, 45000 kPa | 736.5
288.15 K, 50000 kPa | 739.2
288.15 K, 55000 kPa | 741.7
288.15 K, 60000 kPa | 744.1
293.15 K, 100 kPa | 702.5
293.15 K, 101 kPa | 702.58
293.15 K, 1000 kPa | 703.2
293.15 K, 5000 kPa | 706.4
293.15 K, 10000 kPa | 710.3
293.15 K, 15000 kPa | 714
293.15 K, 20000 kPa | 717.6
293.15 K, 25000 kPa | 721
293.15 K, 30000 kPa | 724.3
293.15 K, 35000 kPa | 727.5
293.15 K, 40000 kPa | 730.5
293.15 K, 45000 kPa | 733.3
293.15 K, 50000 kPa | 736
293.15 K, 55000 kPa | 738.6
293.15 K, 60000 kPa | 741
298.15 K, 100 kPa | 698.5
298.15 K, 1000 kPa | 699.2
298.15 K, 5000 kPa | 702.5
298.15 K, 10000 kPa | 706.5
298.15 K, 15000 kPa | 710.3
298.15 K, 20000 kPa | 714
298.15 K, 25000 kPa | 717.6
298.15 K, 30000 kPa | 720.9
298.15 K, 35000 kPa | 724.1
298.15 K, 40000 kPa | 727.2
298.15 K, 45000 kPa | 730.1
298.15 K, 50000 kPa | 732.9
298.15 K, 55000 kPa | 735.5
298.15 K, 60000 kPa | 738
303.15 K, 100 kPa | 694.4
303.15 K, 101 kPa | 694.48
303.15 K, 1000 kPa | 695.2
303.15 K, 5000 kPa | 698.6
303.15 K, 10000 kPa | 702.7
303.15 K, 15000 kPa | 706.7
303.15 K, 20000 kPa | 710.5
303.15 K, 25000 kPa | 714.1
303.15 K, 30000 kPa | 717.5
303.15 K, 35000 kPa | 720.9
303.15 K, 40000 kPa | 724
303.15 K, 45000 kPa | 727
303.15 K, 50000 kPa | 729.8
303.15 K, 55000 kPa | 732.5
303.15 K, 60000 kPa | 735
308.15 K, 100 kPa | 690.4
308.15 K, 1000 kPa | 691.2
308.15 K, 5000 kPa | 694.7
308.15 K, 10000 kPa | 698.9
308.15 K, 15000 kPa | 703
308.15 K, 20000 kPa | 706.9
308.15 K, 25000 kPa | 710.6
308.15 K, 30000 kPa | 714.2
308.15 K, 35000 kPa | 717.5
308.15 K, 40000 kPa | 720.8
308.15 K, 45000 kPa | 723.8
308.15 K, 50000 kPa | 726.7
308.15 K, 55000 kPa | 729.4
308.15 K, 60000 kPa | 731.9
313.15 K, 100 kPa | 686.3
313.15 K, 101 kPa | 686.32
313.15 K, 1000 kPa | 687.1
313.15 K, 5000 kPa | 690.8
313.15 K, 10000 kPa | 695.1
313.15 K, 15000 kPa | 699.3
313.15 K, 20000 kPa | 703.3
313.15 K, 25000 kPa | 707.2
313.15 K, 30000 kPa | 710.8
313.15 K, 35000 kPa | 714.3
313.15 K, 40000 kPa | 717.6
313.15 K, 45000 kPa | 720.7
313.15 K, 50000 kPa | 723.6
313.15 K, 55000 kPa | 726.3
313.15 K, 60000 kPa | 728.9
318.15 K, 100 kPa | 682.2
318.15 K, 1000 kPa | 683
318.15 K, 5000 kPa | 686.8
318.15 K, 10000 kPa | 691.3
318.15 K, 15000 kPa | 695.6
318.15 K, 20000 kPa | 699.7
318.15 K, 25000 kPa | 703.6
318.15 K, 30000 kPa | 707.4
318.15 K, 35000 kPa | 711
318.15 K, 40000 kPa | 714.3
318.15 K, 45000 kPa | 717.5
318.15 K, 50000 kPa | 720.5
318.15 K, 55000 kPa | 723.3
318.15 K, 60000 kPa | 725.9
323.15 K, 100 kPa | 678
323.15 K, 101 kPa | 678.09
323.15 K, 1000 kPa | 678.9
323.15 K, 5000 kPa | 682.8
323.15 K, 10000 kPa | 687.4
323.15 K, 15000 kPa | 691.9
323.15 K, 20000 kPa | 696.1
323.15 K, 25000 kPa | 700.2
323.15 K, 30000 kPa | 704
323.15 K, 35000 kPa | 707.7
323.15 K, 40000 kPa | 711.1
323.15 K, 45000 kPa | 714.4
323.15 K, 50000 kPa | 717.4
323.15 K, 55000 kPa | 720.3
323.15 K, 60000 kPa | 722.9
328.15 K, 100 kPa | 673.8
328.15 K, 1000 kPa | 674.7
328.15 K, 5000 kPa | 678.7
328.15 K, 10000 kPa | 683.5
328.15 K, 15000 kPa | 688.1
328.15 K, 20000 kPa | 692.5
328.15 K, 25000 kPa | 696.7
328.15 K, 30000 kPa | 700.7
328.15 K, 35000 kPa | 704.4
328.15 K, 40000 kPa | 707.9
328.15 K, 45000 kPa | 711.3
328.15 K, 50000 kPa | 714.4
328.15 K, 55000 kPa | 717.3
328.15 K, 60000 kPa | 719.9
333.15 K, 100 kPa | 669.7
333.15 K, 1000 kPa | 670.6
333.15 K, 5000 kPa | 674.8
333.15 K, 10000 kPa | 679.7
333.15 K, 15000 kPa | 684.5
333.15 K, 20000 kPa | 689
333.15 K, 25000 kPa | 693.2
333.15 K, 30000 kPa | 697.3
333.15 K, 35000 kPa | 701.1
333.15 K, 40000 kPa | 704.7
333.15 K, 45000 kPa | 708.1
333.15 K, 50000 kPa | 711.3
333.15 K, 55000 kPa | 714.2
333.15 K, 60000 kPa | 716.9
343.15 K, 100 kPa | 661.2
343.15 K, 1000 kPa | 662.2
343.15 K, 5000 kPa | 666.6
343.15 K, 10000 kPa | 671.9
343.15 K, 15000 kPa | 677
343.15 K, 20000 kPa | 681.8
343.15 K, 25000 kPa | 686.3
343.15 K, 30000 kPa | 690.6
343.15 K, 35000 kPa | 694.6
343.15 K, 40000 kPa | 698.4
343.15 K, 45000 kPa | 701.9
343.15 K, 50000 kPa | 705.2
343.15 K, 55000 kPa | 708.2
343.15 K, 60000 kPa | 711
353.15 K, 100 kPa | 652.6
353.15 K, 1000 kPa | 653.7
353.15 K, 5000 kPa | 658.4
353.15 K, 10000 kPa | 664.1
353.15 K, 15000 kPa | 669.4
353.15 K, 20000 kPa | 674.5
353.15 K, 25000 kPa | 679.3
353.15 K, 30000 kPa | 683.9
353.15 K, 35000 kPa | 688.1
353.15 K, 40000 kPa | 692.1
353.15 K, 45000 kPa | 695.7
353.15 K, 50000 kPa | 699.1
353.15 K, 55000 kPa | 702.3
353.15 K, 60000 kPa | 705.1
363.15 K, 100 kPa | 643.8
363.15 K, 1000 kPa | 645
363.15 K, 5000 kPa | 650.1
363.15 K, 10000 kPa | 656.1
363.15 K, 15000 kPa | 661.9
363.15 K, 20000 kPa | 667.3
363.15 K, 25000 kPa | 672.4
363.15 K, 30000 kPa | 677.2
363.15 K, 35000 kPa | 681.6
363.15 K, 40000 kPa | 685.8
363.15 K, 45000 kPa | 689.6
363.15 K, 50000 kPa | 693.1
363.15 K, 55000 kPa | 696.3
363.15 K, 60000 kPa | 699.2
373.15 K, 100 kPa | 634.7
373.15 K, 1000 kPa | 636.3
373.15 K, 5000 kPa | 641.8
373.15 K, 10000 kPa | 648.2
373.15 K, 15000 kPa | 654.4
373.15 K, 20000 kPa | 660.1
373.15 K, 25000 kPa | 665.5
373.15 K, 30000 kPa | 670.6
373.15 K, 35000 kPa | 675.3
373.15 K, 40000 kPa | 679.6
373.15 K, 45000 kPa | 683.6
373.15 K, 50000 kPa | 687.3
373.15 K, 55000 kPa | 690.5
373.15 K, 60000 kPa | 693.5
393.15 K, 100 kPa | 616.3
393.15 K, 1000 kPa | 618.1
393.15 K, 5000 kPa | 624.3
393.15 K, 10000 kPa | 631.8
393.15 K, 15000 kPa | 638.8
393.15 K, 20000 kPa | 645.3
393.15 K, 25000 kPa | 651.5
393.15 K, 30000 kPa | 657.1
393.15 K, 35000 kPa | 662.3
393.15 K, 40000 kPa | 667.1
393.15 K, 45000 kPa | 671.4
393.15 K, 50000 kPa | 675.3
393.15 K, 55000 kPa | 678.8
393.15 K, 60000 kPa | 681.8
413.15 K, 1000 kPa | 599.3
413.15 K, 5000 kPa | 606.6
413.15 K, 10000 kPa | 615.1
413.15 K, 15000 kPa | 623.1
413.15 K, 20000 kPa | 630.6
413.15 K, 25000 kPa | 637.4
413.15 K, 30000 kPa | 643.8
413.15 K, 35000 kPa | 649.6
413.15 K, 40000 kPa | 654.8
413.15 K, 45000 kPa | 659.5
413.15 K, 50000 kPa | 663.6
413.15 K, 55000 kPa | 667.2
413.15 K, 60000 kPa | 670.2
